Reference: patent publication US10710978B2, “STK4 inhibitors for treatment of hematologic malignancies” (Dana-Farber Cancer Institute, Inc., priority 2015, dated 2020)
pIC50: −log10 of the molar value. “And” between values parts separate entries of the source, which are not always exact repeats. Equal values may be shown once.

Assays:
STK24 (MST3) = STK24 (MST3) (Homo sapiens (Human), UniProt Q9Y6E0); assay: Z-lyte biochemical IC50 assay (Invitrogen); conditions: ATP concentration matched the Km
Protocol: (§1) STK4 (MST1), STK3 (MST2); STK24 (MST3) and MST4 Assays
(§2) Biochemical IC50s were measured at Invitrogen using Z-lyte technology. Briefly, for STK4, the 2×STK4 (MST1)/Ser/Thr 07 mixture was prepared in 50 mM HEPES pH 7.5, 0.01% BRIJ35, 10 mM MgCl2, 1 mM EGTA. The final 10 μL Kinase Reaction consisted of 6.25-160 ng STK4 (MST1) and 2 μM Ser/Thr 07 in 50 mM HEPES pH 7.5, 0.01% BRIJ-35, 10 mM MgCl2, 1 mM EGTA. After the 1 hour Kinase Reaction incubation, 5 μL of a 1:100000 dilution of Development Reagent A was added. Compounds were screened in a 10 point titration with 3-fold serial dilutions starting at a concentration of 10 μM. The biochemical IC50s against other STK family members were measured similarly. The ATP concentration used matched the Km for each kinase.

STK4 (MST1) = STK4 (MST1) (Homo sapiens (Human), UniProt Q13043); assay: Z-lyte biochemical IC50 assay (Invitrogen); conditions: ATP concentration matched the Km
Protocol: as §1, §2

STK3 (MST2) = STK3 (MST2) (Homo sapiens (Human), UniProt Q13188); assay: Z-lyte biochemical IC50 assay (Invitrogen); conditions: ATP concentration matched the Km
Protocol: as §1, §2

YAP1 = assay: Western blotting; format: cell-based; conditions: H929 and MM.1S cells, 3 μM and 10 μM, 72 hours
Text: (§3) MM.1S, KMS20 and H929 cells are counted, diluted and plated. Cells are then […] with DMSO or different concentration of a compound of the present application for 6 hrs, 24 hrs or 48 hrs. MM cells are then collected and centrifuged at RT and the pellets are re-suspended in lysis buffer. Cell lysates are subjected to sodium dodecyl sulfate-polyacrylamide gel electrophoresis SDS-PAGE, transferred to nitrocellulose membranes, and immunoblotted with different antibodies.
(§4) MM.1S, KMS20 and H929 cells were counted, diluted and plated in six-well plates to a final concentration of 500,000 cells/well. Cells were then […] with DMSO or different concentration of a compound of the present application for 6 hrs, 24 hrs or 48 hrs. MM cells were then collected and centrifuged for 5 min, 1300 rpm at RT. The pellets were re-suspended in lysis buffer Laemli 1× (Laemli 5×: SDS 10%, DTT 500 mM, Tris-HCl pH6.8 0.4M, BromoFenol Blue, Glycerol 50%). Cell lysates were subjected to sodium dodecyl sulfate-polyacrylamide gel electrophoresis SDS-PAGE, transferred to nitrocellulose membranes, and immunoblotted with different antibodies: YAP1 (#4912), p-YAP1 (S127) (#13008), LATS1 (#9153), p-LATS1 (Thr1079) (#8654), MOB1 (#3863), p-MOB1 (Thr12) (#8843), p-MST1/p-MST2 (Thr183/Thr180) (#3681), p21 (#2947), PARP (#9532), ERK, STAT, and GAPDH (#5174) from Cell Signaling, Beverly, Mass., United States; STK4 (ab57836) (from Abcam, Cambridge, Mass., United States); PUMA (sc-28226), BAX (sc-20067), from Santa Cruz, Dallas, Tex., United States; β-actin from Sigma-Aldrich (St. Louis, Mo., United States). All antibodies were diluted 1:500, except for β-actin antibody (1:50,000 dilution). In FIG. 8, H929 cells were treated with Compound I-9 or DMSO at 1 μM concentration for 24 hours. Lysates were then obtained and immunoblot was performed using antibodies against PARP, YAP1, PUMA, BAX. p21, and GAPDH.
In FIG. 10A, H929 and MM.1S cells were treated with Compound I-1 or DMSO at 1 μM and 10 μM concentrations for 16 hours. Lysates were then obtained and immunoblot was performed using antibodies against YAP1 and GAPDH.
In FIG. 12, H929 and MM. 1S cells were treated with Compound I-9, Compound I-12, or DMSO at 3 μM and 10 μM concentrations for 72 hours. Lysates were then obtained and immunoblot was performed using antibodies against YAP1 and Actin as loading control.
FIG. 13 show a Western blot of H929 and MM.1S cells treated with Compound I-13, Compound I-28, Compound I-9, KIN001-305, BMS536924, or DMSO at 1 μM concentration for 16 hours. Lysates were then obtained and immunoblot was performed using antibodies against YAP1, Actin, and pMOB1.

p-MOB1 = assay: Western blotting; format: cell-based; conditions: MM.1S cells, 1 μM and 10 μM, 6 hours
Text: as §3, §4
In FIGS. 26A-26J, MM.1S cells were treated with Compound I-6, Compound I-31, Compound I-30, Compound I-22, Compound I-27, Compound I-1, Compound I-23, Compound I-13, Compound I-28, Compound I-9, or DMSO at 1 μM and 10 μM concentrations for 6 hours. Lysates were then obtained and immunoblot was performed using antibodies against MOB1 and p-MOB1. As shown from FIGS. 26A-26J, Compound I-22, Compound I-27, Compound I-1, Compound I-23, Compound I-13, Compound I-28, and Compound I-9 reduced PMOB1 levels at different concentrations.

STK4 = STK4 (Homo sapiens (Human), UniProt Q13043); assay: KiNativ Platform experiment, MM.1S cell lysates, biotinylated ATP, Western blot; format: binding; conditions: 10 μM, 20 minutes, then biotinylated ATP 10 minutes
Protocol: FIG. 32A and FIG. 32B show the results of a KiNativ™ Platform experiment obtained after incubating MM.1S cell lysates with 10 μM of the indicated compounds for 20 minutes, followed by incubation with biotinylated ATP for 10 minutes. FIG. 32A is a graph showing the ratio of MEK2 to STK4 derived from the Western blotting band signals in FIG. 32B, in MM.1S cell lysates treated with 10 μM of Compound I-9, I-13, or I-27 or KIN001-305 followed by incubation with biotinylated ATP. FIG. 32B is a Western blot showing the levels of STK4 and MEK2 in MM.1S cells treated with 10 μM of Compound I-9, I-13, or I-27 or KIN001-305 followed by incubation with biotinylated ATP.

Chain of STK4 (MST1) (Q13043 whole entry): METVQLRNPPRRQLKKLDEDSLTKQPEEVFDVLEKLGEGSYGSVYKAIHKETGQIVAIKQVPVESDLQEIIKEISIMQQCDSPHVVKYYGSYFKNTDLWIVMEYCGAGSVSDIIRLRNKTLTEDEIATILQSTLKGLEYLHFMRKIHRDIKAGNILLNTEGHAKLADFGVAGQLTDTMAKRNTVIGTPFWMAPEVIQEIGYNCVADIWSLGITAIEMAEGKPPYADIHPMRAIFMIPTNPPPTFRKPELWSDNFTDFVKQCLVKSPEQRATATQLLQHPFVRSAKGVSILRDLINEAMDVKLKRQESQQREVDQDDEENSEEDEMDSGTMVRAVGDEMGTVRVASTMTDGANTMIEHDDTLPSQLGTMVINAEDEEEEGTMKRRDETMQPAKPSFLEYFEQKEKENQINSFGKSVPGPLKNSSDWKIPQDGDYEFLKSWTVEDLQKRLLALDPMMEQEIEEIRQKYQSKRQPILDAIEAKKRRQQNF
Chain of STK3 (MST2) (Q13188 whole entry): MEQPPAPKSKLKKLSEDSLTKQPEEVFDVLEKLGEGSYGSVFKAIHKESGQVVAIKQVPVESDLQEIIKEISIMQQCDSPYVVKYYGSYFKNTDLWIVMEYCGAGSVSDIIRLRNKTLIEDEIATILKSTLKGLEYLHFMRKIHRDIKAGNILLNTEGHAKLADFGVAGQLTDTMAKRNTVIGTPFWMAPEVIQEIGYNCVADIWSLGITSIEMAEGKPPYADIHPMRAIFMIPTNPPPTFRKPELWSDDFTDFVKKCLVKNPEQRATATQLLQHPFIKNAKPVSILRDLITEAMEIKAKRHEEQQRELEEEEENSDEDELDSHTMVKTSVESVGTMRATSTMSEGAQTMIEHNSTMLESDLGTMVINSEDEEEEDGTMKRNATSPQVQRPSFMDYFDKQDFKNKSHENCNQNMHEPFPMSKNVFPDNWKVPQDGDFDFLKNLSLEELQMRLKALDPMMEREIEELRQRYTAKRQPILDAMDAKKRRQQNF
Chain of STK24 (MST3) (Q9Y6E0 whole entry): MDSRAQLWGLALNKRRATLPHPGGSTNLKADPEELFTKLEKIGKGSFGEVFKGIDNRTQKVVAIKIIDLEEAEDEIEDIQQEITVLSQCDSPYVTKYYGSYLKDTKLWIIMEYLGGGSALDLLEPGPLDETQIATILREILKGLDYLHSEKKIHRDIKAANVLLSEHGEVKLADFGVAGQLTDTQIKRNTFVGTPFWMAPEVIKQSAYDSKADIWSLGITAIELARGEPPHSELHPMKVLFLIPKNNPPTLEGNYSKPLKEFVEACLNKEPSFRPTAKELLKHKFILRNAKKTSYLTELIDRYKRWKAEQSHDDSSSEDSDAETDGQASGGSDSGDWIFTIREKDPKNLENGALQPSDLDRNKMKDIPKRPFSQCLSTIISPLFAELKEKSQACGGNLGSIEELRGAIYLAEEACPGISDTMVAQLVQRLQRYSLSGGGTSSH
Chain of STK4 (Q13043 whole entry): as the sequence (Q13043 whole entry) above

pIC50 (STK24 (MST3)) | pIC50 (STK4 (MST1)) | pIC50 (STK3 (MST2)) | affinity for STK4, as of ATP binding (STK4) | Structure (SMILES) | YAP1 levels (YAP1) | PMOB1 levels (p-MOB1)
< 6.05 | > 7.40 | – | – | Nc1ncc(-c2cccc([N+](=O)[O-])c2)cc1-c1ccc2c(c1)CCNC2=O [Compound I-2, 6-(2-amino-5-(3-nitrophenyl)pyridin-3-yl)-3,4-dihydroisoquinolin-1(2H)-one] | – | –
< 6.05 | 6.70 to 7.40 | – | – | Nc1ncc(-c2ccccc2F)cc1-c1ccc2c(c1)CCNC2=O [Compound I-3, 6-(2-amino-5-(2-fluorophenyl)pyridin-3-yl)-3,4-dihydroisoquinolin-1(2H)-one] | – | –
< 6.05 | < 6.05 | – | – | Nc1ncc(-c2cc([N+](=O)[O-])ccc2Cl)cc1-c1ccc2c(c1)CCNC2=O [Compound I-4, 6-(2-amino-5-(2-chloro-5-nitrophenyl)pyridin-3-yl)-3,4-dihydroisoquinolin-1(2H)-one] | – | –
< 6.05 | 6.05 to 6.70 | – | – | Nc1ncc(-c2cnccc2F)cc1-c1ccc2c(c1)CCNC2=O [Compound I-5, 6-(6-amino-4′-fluoro-[3,3′-bipyridin]-5-yl)-3,4-dihydroisoquinolin-1(2H)-one] | – | –
< 6.05 | < 6.05 | – | – | CCNC(=O)c1ccc(F)c(-c2cnc(N)c(-c3ccc4c(c3)CCNC4=O)c2)c1 [Compound I-6, 3-(6-amino-5-(1-oxo-1,2,3,4-tetrahydroisoquinolin-6-yl)pyridin-3-yl)-N-ethyl-4-fluorobenzamide] | – | –
6.05 to 6.70 | 6.70 to 7.40 | 6.70 to 7.40 | – | Nc1ncc(-c2cccc(S(=O)(=O)NC3CC3)c2)cc1-c1ccc2c(c1)CCNC2=O [Compound I-12, 3-(6-amino-5-(1-oxo-1,2,3,4-tetrahydroisoquinolin-6-yl)pyridin-3-yl)-N-cyclopropylbenzenesulfonamide] | upregulation | –
– | 6.70 to 7.40 | 6.70 to 7.40 | – | Nc1ncc(-c2cc([N+](=O)[O-])c(Cl)cc2F)cc1-c1ccc2c(c1)CCNC2=O [Compound I-22, 6-(2-amino-5-(4-chloro-2-fluoro-5-nitrophenyl)pyridin-3-yl)-3,4-dihydroisoquinolin-1(2H)-one] | – | reduced
– | > 7.40 | 6.70 to 7.40 | – | Nc1ncc(-c2cc3c(cc2F)OCC(=O)N3)cc1-c1ccc2c(c1)CCNC2=O [Compound I-23, 6-(6-amino-5-(1-oxo-1,2,3,4-tetrahydroisoquinolin-6-yl)pyridin-3-yl)-7-fluoro-2H-benzo[b][1,4]oxazin-3(4H)-one] | – | reduced
– | 6.70 to 7.40 | – | highest affinity | Nc1ncc(-c2cc([N+](=O)[O-])c(NCc3ccccc3)cc2F)cc1-c1ccc2c(c1)CCNC2=O [Compound I-27, 6-(2-amino-5-(4-(benzylamino)-2-fluoro-5-nitrophenyl)pyridin-3-yl)-3,4-dihydroisoquinolin-1(2H)-one] | – | reduced
6.70 to 7.40 | > 7.40 | > 7.40 | – | COc1cc(S(=O)(=O)N(C)C2CC2)ccc1-c1cnc(N)c(-c2ccc3c(c2)CCNC3=O)c1 [Compound I-72, 4-(6-amino-5-(1-oxo-1,2,3,4-tetrahydroisoquinolin-6-yl)pyridin-3-yl)-N-cyclopropyl-3-methoxy-N-methylbenzenesulfonamide] | – | –
< 6.05 | > 7.40 and 6.70 to 7.40 | > 7.40 | – | CN(C1CC1)S(=O)(=O)c1ccc(-c2cnc(N)c(-c3ccc4c(c3)CNC4=O)c2)c(F)c1 [Compound I-74, 4-(6-amino-5-(1-oxoisoindolin-5-yl)pyridin-3-yl)-N-cyclopropyl-3-fluoro-N-methylbenzenesulfonamide] | – | –
6.05 to 6.70 | 6.70 to 7.40 | 6.70 to 7.40 | – | N#Cc1cccc(-c2cnc(N)c(-c3ccc4c(c3)CCNC4=O)c2)c1 [Compound I-75, 3-(6-amino-5-(1-oxo-1,2,3,4-tetrahydroisoquinolin-6-yl)pyridin-3-yl)benzonitrile] | – | –
< 6.05 | > 7.40 and 6.70 to 7.40 | 6.70 to 7.40 | – | Nc1ncc(-c2scnc2Cl)cc1-c1ccc2c(c1)CCNC2=O [Compound I-76, 6-(2-amino-5-(4-chlorothiazol-5-yl)pyridin-3-yl)-3,4-dihydroisoquinolin-1(2H)-one] | – | –
– | 6.70 to 7.40 | – | – | Nc1ncc(-c2scnc2Cl)cc1-c1ccc2c(c1)CCNC2=O [Compound I-77, 6-(2-amino-5-(4-chlorothiazol-5-yl)pyridin-3-yl)-3,4-dihydroisoquinolin-1(2H)-one] | – | –
– | > 7.40 | – | highest affinity | CN(C1CC1)S(=O)(=O)c1ccc(-c2cnc(N)c(-c3ccc4c(c3)CCNC4=O)c2)cc1 [KIN001-305, reference compound] | – | –
